According to patent US10336762B2 (priority 2017, dated 2019):
Like-named read-outs stand apart in the source and are kept apart here.

Tests used:
[1] = test system: TNFα; test: cells; assay type: cell-based, human; conditions: LPS-stimulated human monocytes, read-out: EC50 TNF
[2] = target: IRAK4 enzyme (Homo sapiens (Human), UniProt Q9NWZ3); test: biochemical; assay type: biochemical; conditions: IRAK4 enzyme, 500 μM ATP
[3] = Homo sapiens, Monocyte, TNFα content
[4] = Homo sapiens, Monocyte, TNFα by TR-FRET

Chain of IRAK4 enzyme (Q9NWZ3 whole entry): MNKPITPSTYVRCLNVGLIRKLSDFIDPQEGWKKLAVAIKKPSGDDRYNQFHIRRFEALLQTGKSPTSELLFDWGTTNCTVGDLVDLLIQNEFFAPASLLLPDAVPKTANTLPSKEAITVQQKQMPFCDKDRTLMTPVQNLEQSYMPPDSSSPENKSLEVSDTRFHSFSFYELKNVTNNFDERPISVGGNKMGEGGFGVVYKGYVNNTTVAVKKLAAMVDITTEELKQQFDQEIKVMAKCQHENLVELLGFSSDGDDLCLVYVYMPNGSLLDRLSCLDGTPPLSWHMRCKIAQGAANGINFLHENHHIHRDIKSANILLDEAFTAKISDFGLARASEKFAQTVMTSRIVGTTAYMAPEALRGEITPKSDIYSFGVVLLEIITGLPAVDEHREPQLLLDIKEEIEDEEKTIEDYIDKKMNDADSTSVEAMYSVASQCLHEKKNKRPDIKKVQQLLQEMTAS

| Structure (SMILES) | EC50 [1, 3] | IC50 ([2]; TR-FRET (HTRF)) | IC50 ([2]; TR-FRET) | EC50 [1, 4] | EC50 ([1]; TNFα content) |
| --- | --- | --- | --- | --- | --- |
| CC(C)(O)[C@H](F)CNC(=O)c1cnc(-c2ccc3cc(C#N)cnn23)cc1N[C@@H]1CC[C@@H](c2cnco2)OC1 [Example 639, 6-(3-cyanopyrrolo[1,2-b]pyridazin-7-yl)-N-((R)-2-fluoro-3-hydroxy-3-methylbutyl)-4-(((3R,6S)-6-(oxazol-5-yl)tetrahydro-2H-pyran-3-yl)amino)nicotinamide] | 0.043 µM | 0.001 µM | – | – | – |
| CC(C)Nc1cc(-c2ccc3cc(C#N)cnn23)ncc1C(=O)NC12CC(C#N)(C1)C2 [Example 380, N-(3-cyanobicyclo[1.1.1]pentan-1-yl)-6-(3-cyano-pyrrolo[1,2-b]pyridazin-7-yl)-4-(isopropylamino) nicotinamide] | 0.773 µM | – | 0.015 µM | – | – |
| COC(=O)N[C@H]1CC[C@H](Nc2cc(-c3ccc4cc(C#N)cnn34)ncc2C(=O)NC[C@@H](F)C(C)(C)O)CC1 [Example 314, methyl ((1R,4r)-4-((2-(3-cyanopyrrolo[1,2-b]pyridazin-7-yl)-5-(((R)-2-fluoro-3-hydroxy-3-methylbutyl)carbamoyl)pyridin-4-yl)amino)cyclo-hexyl)carbamate] | 0.02 µM | – | < 0.001 µM | – | – |
| CC(C)(O)[C@H](F)CNC(=O)c1cnc(-c2ccc3cc(C#N)cnn23)cc1N[C@H]1C[C@H](COC(=O)N2CCC(F)(F)C2)C1 [Example 737, ((1R,3r)-3-((2-(3-cyano-pyrrolo[1,2-b]pyridazin-7-yl)-5-(((R)-2-fluoro-3-hydroxy-3-methylbutyl)carbamoyl)pyridin-4-yl)amino)cyclobutyl) methyl 3,3-difluoro-pyrrolidine-1-carboxylate] | 0.026 µM | < 0.001 µM | – | – | – |
| CC(C)(O)[C@H](F)CNC(=O)c1cnc(-c2ccc3cc(C#N)cnn23)cc1N[C@H]1CC[C@H](O)C1 [Example 522, 6-(3-cyanopyrrolo[1,2-b]pyridazin-7-yl)-N-((R)-2-fluoro-3-hydroxy-3-methylbutyl)-4-(((1S,3S)-3-hydroxycyclopentyl)amino) nicotinamide] | 0.023 µM | < 0.001 µM | – | – | – |
| CC(C)(O)CNC(=O)c1cnc(-c2ccc3cc(C#N)cnn23)cc1NC12CCC(O)(CC1)CC2 [Example 753, 6-(3-cyanopyrrolo[1,2-b]pyridazin-7-yl)-N-(2-hydroxy-2-methylpropyl)-4-((4-hydroxybicyclo[2.2.2]octan-1-yl)amino) nicotinamide] | 0.225 µM | 0.007 µM | – | – | – |
| CC(C)(O)[C@H](F)CNC(=O)c1cnc(-c2ccc3cc(C#N)cnn23)cc1-n1cc(-c2cnc(N)cn2)cn1 [Example 936, (R)-4-(4-(5-aminopyrazin-2-yl)-1H-pyrazol-1-yl)-6-(3-cyanopyrrolo[1,2-b]pyridazin-7-yl)-N-(2-fluoro-3-hydroxy-3-methylbutyl) nicotinamide] | – | – | 0.147 µM | > 10 µM | – |
| CC(C)(O)[C@H](F)CNC(=O)c1cnc(-c2ccc3cc(C#N)cnn23)cc1NC1CCCC(F)C1 (stereo partly drawn) [Example 509, 6-(3-cyanopyrrolo[1,2-b]pyridazin-7-yl)-N-((R)-2-fluoro-3-hydroxy-3-methylbutyl)-4-(((1S)-3-fluorocyclohexyl)amino) nicotinamide] | 0.066 µM | < 0.001 µM | – | – | – |
| CC(C)(O)[C@H](F)CNC(=O)c1cnc(-c2ccc3cc(C#N)cnn23)cc1Nc1ccc(OC(F)F)nc1 [Example 597, (R)-6-(3-cyano-pyrrolo[1,2-b]pyridazin-7-yl)-4-((6-(difluoro-methoxy)pyridin-3-yl)amino)-N-(2-fluoro-3-hydroxy-3-methylbutyl) nicotinamide] | 0.106 µM | 0.001 µM | – | – | – |
| CC(C)(O)[C@H](F)CNC(=O)c1cnc(-c2ccc3cc(C#N)cnn23)cc1NC12CCC(NC(=O)C(F)(F)F)(CC1)CC2 [Example 295, (R)-6-(3-cyanopyrrolo[1,2-b]pyridazin-7-yl)-N-(2-fluoro-3-hydroxy-3-methyl-butyl)-4-((4-(2,2,2-trifluoro-acetamido)bicyclo[2.2.2]octan-1-yl)amino) nicotinamide] | 0.038 µM | – | 0.001 µM | – | – |
| CC(C)Nc1cc(-c2ccc3cc(C#N)cnn23)ncc1C(=O)NC1CCC(S(C)(=O)=O)CC1 (centres unmarked) [Example 521, 6-(3-cyanopyrrolo[1,2-b]pyridazin-7-yl)-4-(iso-propylamino)-N-(4-(methylsulfonyl)cyclohexyl) nicotinamide] | 0.717 µM | 0.062 µM | – | – | – |
| N#CCNC(=O)c1cnc(-c2ccc3cc(C#N)cnn23)cc1Nc1cnn([C@H]2CCNC2)c1 [Example 896, (S)-N-(cyanomethyl)-6-(3-cyanopyrrolo[1,2-b]pyridazin-7-yl)-4-((1-(pyrrolidin-3-yl)-1H-pyrazol-4-yl)amino) nicotinamide] | – | – | < 0.001 µM | 0.048 µM | – |
| CC(C)(O)[C@H](F)CNC(=O)c1cnc(-c2ccc3cc(C#N)cnn23)cc1Nc1ccc2cnccc2n1 [Example 821, (R)-4-((1,6-naphthyridin-2-yl)amino)-6-(3-cyano-pyrrolo[1,2-b]pyridazin-7-yl)-N-(2-fluoro-3-hydroxy-3-methylbutyl)nicotinamide] | – | – | < 0.001 µM | 0.051 µM | – |
| CCCC(=O)NC[C@H]1C[C@H](Nc2cc(-c3ccc4cc(C#N)cnn34)ncc2C(=O)NC[C@@H](F)C(C)(C)O)C1 [Example 825, 4-(((1r,3R)-3-(butyramidomethyl)cyclo-butyl)amino)-6-(3-cyano-pyrrolo[1,2-b]pyridazin-7-yl)-N-((R)-2-fluoro-3-hydroxy-3-methylbutyl) nicotinamide] | – | – | < 0.001 µM | 0.048 µM | – |
| CN(C)S(=O)(=O)N1CCC(Nc2cc(-c3ccc4cc(C#N)cnn34)ncc2C(=O)NC[C@@H](F)C(C)(C)O)CC1 [Example 244, (R)-6-(3-cyanopyrrolo[1,2-b]pyridazin-7-yl)-4-((1-(N,N-dimethylsulfamoyl)piperidin-4-yl)amino)-N-(2-fluoro-3-hydroxy-3-methylbutyl) nicotinamide] | 0.102 µM | – | 0.001 µM | – | – |
| N#CCNC(=O)c1cnc(-c2ccc3cc(C#N)cnn23)cc1NC1CC2(CC(O)C2)C1 (centres unmarked) [Example 453, N-(cyanomethyl)-6-(3-cyanopyrrolo[1,2-b]pyridazin-7-yl)-4-((6-hydroxyspiro[3.3]heptan-2-yl)amino) nicotinamide] | 0.068 µM | < 0.001 µM | – | – | – |
| Cc1nnc(NC[C@H]2C[C@H](Nc3cc(-c4ccc5cc(C#N)cnn45)ncc3C(=O)NC[C@@H](F)C(C)(C)O)C2)o1 [Example 694, 6-(3-cyanopyrrolo[1,2-b]pyridazin-7-yl)-N—((R)-2-fluoro-3-hydroxy-3-methylbutyl)-4-(((1r,3R)-3-(((5-methyl-1,3,4-oxadiazol-2-yl)amino)methyl)cyclobutyl)amino)nicotinamide] | 0.102 µM | < 0.001 µM | – | – | – |
| CC(C)(O)[C@H](F)CNC(=O)c1cnc(-c2ccc3cc(C#N)cnn23)cc1Nc1cnn(C2CCNCC2)c1 [Example 236, (R)-6-(3-cyanopyrrolo[1,2-b]pyridazin-7-yl)-N-(2-fluoro-3-hydroxy-3-methylbutyl)-4-((1-(piperidin-4-yl)-1H-pyrazol-4-yl)amino) nicotinamide] | 0.379 µM | – | 0.001 µM | – | – |
| N#Cc1cnn2c(-c3cc(NC45CCC(O)(CC4)CC5)c(C(=O)N[C@@H]4CCNC4=O)cn3)ccc2c1 [Example 959, (R)-6-(3-cyanopyrrolo[1,2-b]pyridazin-7-yl)-4-((4-hydroxybicyclo[2.2.2]octan-1-yl)amino)-N-(2-oxo-pyrrolidin-3-yl)nicotinamide] | – | – | < 0.001 µM | 0.206 µM | – |
| COCCOc1ncc(Nc2cc(-c3ccc4cc(C#N)cnn34)ncc2C(=O)NC[C@@H](F)C(C)(C)O)cn1 [Example 663, (R)-6-(3-cyanopyrrolo[1,2-b]pyridazin-7-yl)-N-(2-fluoro-3-hydroxy-3-methylbutyl)-4-((2-(2-methoxyethoxy)pyrimidin-5-yl)amino)nicotinamide] | 0.052 µM | < 0.001 µM | – | – | – |
| CC(C)(O)[C@H](F)CNC(=O)c1cnc(-c2ccc3cc(C#N)cnn23)cc1NC1CC(CNC(=O)C2CCC2)C1 (stereo partly drawn) [Example 927, 6-(3-cyanopyrrolo[1,2-b]pyridazin-7-yl)-4-(((1r,3R)-3-(cyclobutanecarboxamido-methyl)cyclobutyl)amino)-N-((R)-2-fluoro-3-hydroxy-3-methylbutyl)nicotinamide] | – | – | < 0.001 µM | 0.022 µM | – |
| CC(C)(O)[C@H](F)CNC(=O)c1cnc(-c2ccc3cc(C#N)cnn23)cc1N[C@H]1CN2CCC1CC2 [Example 266, 6-(3-cyanopyrrolo[1,2-b]pyridazin-7-yl)-N-((R)-2-fluoro-3-hydroxy-3-methylbutyl)-4-(((R)-quinuclidin-3-yl)amino)nicotinamide] | 7.59 µM | – | 0.131 µM | – | – |
| Cn1cnc2cc(Nc3cc(-c4ccc5cc(C#N)cnn45)ncc3C(=O)NC[C@@H](F)C(C)(C)O)cnc21 [Example 782, (R)-6-(3-cyanopyrrolo[1,2-b]pyridazin-7-yl)-N-(2-fluoro-3-hydroxy-3-methylbutyl)-4-((3-methyl-3H-imidazo[4,5-b]pyridin-6-yl)amino)nicotinamide] | 0.029 µM | < 0.001 µM | – | – | – |
| CC(C)(O)[C@H](F)CNC(=O)c1cnc(-c2ccc3cc(C#N)cnn23)cc1N[C@H]1C[C@H](CNC(=O)C2CC2(F)F)C1 (stereo partly drawn) [Example 695, 6-(3-cyanopyrrolo[1,2-b]pyridazin-7-yl)-4-(((1R,3R)-3-(((R)-2,2-difluorocyclopropane-1-carboxamido)methyl)cyclobutyl)amino)-N-((R)-2-fluoro-3-hydroxy-3-methylbutyl)nicotinamide] | 0.015 µM | < 0.001 µM | – | – | – |
| CC(C)(O)[C@H](F)CNC(=O)c1cnc(-c2ccc3cc(C#N)cnn23)cc1NC1CC1CO (stereo partly drawn) [Example 321, 6-(3-cyanopyrrolo[1,2-b]pyridazin-7-yl)-N-((R)-2-fluoro-3-hydroxy-3-methylbutyl)-4-((2-(hydroxymethyl)cyclo-propyl)amino)nicotinamide] | – | – | < 0.001 µM | – | 0.038 µM |
